Data from the supplement of paper PMC10307832.

How the values were obtained:
Assay in all cases: relative viability (nuclei count vs DMSO), 5 days (fraction); higher = more cells survive
A-427 = tested on: A-427
Procedure, shortened: (§1)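 Lung cancer cell lines in 1536-well plates got either a single drug or a fixed anchor-drug dose together with five library-drug doses (not always all listed) in √10 steps, by pin tool, on the day after seeding. Nuclei were counted after 5 days, and relative viability is the treated-to-vehicle ratio of nuclei counts. Values are medians of duplicate plates.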

COR-L 105 = tested on: COR-L 105
Procedure, shortened: as §1

EKVX = tested on: EKVX
Procedure, shortened: as §1

EMC-BAC-2 = tested on: EMC-BAC-2
Procedure, shortened: as §1

H3255 = tested on: H3255
Procedure, shortened: as §1

HCC-366 = tested on: HCC-366
Procedure, shortened: as §1

LK-2 = tested on: LK-2
Procedure, shortened: as §1

LOU-NH91 = tested on: LOU-NH91
Procedure, shortened: as §1

NCI-H1563 = tested on: NCI-H1563
Procedure, shortened: as §1

NCI-H1666 = tested on: NCI-H1666
Procedure, shortened: as §1

NCI-H1734 = tested on: NCI-H1734
Procedure, shortened: as §1

NCI-H1755 = tested on: NCI-H1755
Procedure, shortened: as §1

NCI-H1792 = tested on: NCI-H1792
Procedure, shortened: as §1

NCI-H1975 = tested on: NCI-H1975
Procedure, shortened: as §1

NCI-H23 = tested on: NCI-H23
Procedure, shortened: as §1

NCI-H441 = tested on: NCI-H441
Procedure, shortened: as §1

NCI-H520 = tested on: NCI-H520
Procedure, shortened: as §1

NCI-H596 = tested on: NCI-H596
Procedure, shortened: as §1

PC-3 [JPC-3] = tested on: PC-3 [JPC-3]
Procedure, shortened: as §1

SK-MES-1 = tested on: SK-MES-1
Procedure, shortened: as §1

O=C(O)c1ccc(-c2c[nH]c3ncc(-c4ccccc4)cc23)cc1C1CCCC1 + C[C@]1(O)C[C@@H](c2nc(-c3ccc4ccc(-c5ccccc5)nc4c3)c3c(N)nccn32)C1 [Linsitinib] (partner 1 µM)
relative viability (A-427; first compound 0.04 µM): 1.14
relative viability (A-427; first compound 0.1265 µM): 1.1
relative viability (A-427; first compound 0.4 µM): 1.05
relative viability (A-427; first compound 1.265 µM): 0.865
relative viability (COR-L 105; first compound 0.04 µM): 1.07
relative viability (COR-L 105; first compound 0.1265 µM): 0.919
relative viability (COR-L 105; first compound 0.4 µM): 1
relative viability (COR-L 105; first compound 1.265 µM): 0.92
relative viability (EKVX; first compound 0.04 µM): 0.984
relative viability (EKVX; first compound 0.1265 µM): 1.18
relative viability (EKVX; first compound 0.4 µM): 1.11
relative viability (EKVX; first compound 1.265 µM): 0.713
relative viability (EMC-BAC-2; first compound 0.04 µM): 0.823
relative viability (EMC-BAC-2; first compound 0.1265 µM): 0.866
relative viability (EMC-BAC-2; first compound 0.4 µM): 0.819
relative viability (EMC-BAC-2; first compound 1.265 µM): 0.79
relative viability (H3255; first compound 0.04 µM): 1
relative viability (H3255; first compound 0.1265 µM): 0.994
relative viability (H3255; first compound 0.4 µM): 0.935
relative viability (H3255; first compound 1.265 µM): 0.909
relative viability (HCC-366; first compound 0.04 µM): 0.657
relative viability (HCC-366; first compound 0.1265 µM): 0.759
relative viability (HCC-366; first compound 0.4 µM): 0.882
relative viability (HCC-366; first compound 1.265 µM): 0.573
relative viability (LK-2; first compound 0.04 µM): 0.667
relative viability (LK-2; first compound 0.1265 µM): 0.587
relative viability (LK-2; first compound 0.4 µM): 0.549
relative viability (LK-2; first compound 1.265 µM): 0.902
relative viability (LOU-NH91; first compound 0.04 µM): 0.983
relative viability (LOU-NH91; first compound 0.1265 µM): 0.962
relative viability (LOU-NH91; first compound 0.4 µM): 0.899
relative viability (LOU-NH91; first compound 1.265 µM): 0.788
relative viability (NCI-H1563; first compound 0.04 µM): 1.22
relative viability (NCI-H1563; first compound 0.1265 µM): 1.17
relative viability (NCI-H1563; first compound 0.4 µM): 1.19
relative viability (NCI-H1563; first compound 1.265 µM): 1.18
relative viability (NCI-H1666; first compound 0.04 µM): 0.755
relative viability (NCI-H1666; first compound 0.1265 µM): 0.829
relative viability (NCI-H1666; first compound 0.4 µM): 0.703
relative viability (NCI-H1666; first compound 1.265 µM): 0.81
relative viability (NCI-H1734; first compound 0.04 µM): 0.917
relative viability (NCI-H1734; first compound 0.1265 µM): 0.938
relative viability (NCI-H1734; first compound 0.4 µM): 0.816
relative viability (NCI-H1734; first compound 1.265 µM): 0.823
relative viability (NCI-H1755; first compound 0.04 µM): 0.96
relative viability (NCI-H1755; first compound 0.1265 µM): 1.01
relative viability (NCI-H1755; first compound 0.4 µM): 1.02
relative viability (NCI-H1755; first compound 1.265 µM): 0.961
relative viability (NCI-H1792; first compound 0.04 µM): 0.577
relative viability (NCI-H1792; first compound 0.1265 µM): 0.727
relative viability (NCI-H1792; first compound 0.4 µM): 0.56
relative viability (NCI-H1792; first compound 1.265 µM): 0.558
relative viability (NCI-H1975; first compound 0.04 µM): 0.903
relative viability (NCI-H1975; first compound 0.1265 µM): 0.935
relative viability (NCI-H1975; first compound 0.4 µM): 0.951
relative viability (NCI-H1975; first compound 1.265 µM): 1
relative viability (NCI-H23; first compound 0.04 µM): 0.545
relative viability (NCI-H23; first compound 0.1265 µM): 0.617
relative viability (NCI-H23; first compound 0.4 µM): 0.559
relative viability (NCI-H23; first compound 1.265 µM): 0.451
relative viability (NCI-H441; first compound 0.04 µM): 0.666
relative viability (NCI-H441; first compound 0.1265 µM): 0.674
relative viability (NCI-H441; first compound 0.4 µM): 0.563
relative viability (NCI-H441; first compound 1.265 µM): 0.531
relative viability (NCI-H520; first compound 0.04 µM): 0.833
relative viability (NCI-H520; first compound 0.1265 µM): 1.13
relative viability (NCI-H520; first compound 0.4 µM): 0.904
relative viability (NCI-H520; first compound 1.265 µM): 0.712
relative viability (NCI-H596; first compound 0.04 µM): 0.974
relative viability (NCI-H596; first compound 0.1265 µM): 1.05
relative viability (NCI-H596; first compound 0.4 µM): 1.19
relative viability (NCI-H596; first compound 1.265 µM): 1.03
relative viability (PC-3 [JPC-3]; first compound 0.04 µM): 0.915
relative viability (PC-3 [JPC-3]; first compound 0.1265 µM): 0.986
relative viability (PC-3 [JPC-3]; first compound 0.4 µM): 0.943
relative viability (PC-3 [JPC-3]; first compound 1.265 µM): 0.788
relative viability (SK-MES-1; first compound 0.04 µM): 1.18
relative viability (SK-MES-1; first compound 0.1265 µM): 1.09
relative viability (SK-MES-1; first compound 0.4 µM): 0.997
relative viability (SK-MES-1; first compound 1.265 µM): 0.749
